The values below come from patent US5686486A, “4-hydroxy-benzopyran-2-ones and 4-hydroxy-cycloalkyl[b]pyran-2-ones useful to treat retroviral infections” (priority 1995, dated 1997).

For assay [1], the target named is T1, HIV-1 protease (Human immunodeficiency virus type 1 group M subtype B, UniProt P04585). The assay is described as follows: biochemical. The conditions noted are these: for inhibition at 0.123 µM: read-out: HIV-1 Protease % Inhib, dose 0.123 uM; for inhibition at 0.37 µM: read-out: HIV-1 Protease % Inhib, dose 0.370 uM; for inhibition at 1.1 µM: read-out: HIV-1 Protease % Inhib, dose 1.100 uM; for inhibition at 3.3 µM: read-out: HIV-1 Protease % Inhib, dose 3.300 uM; for inhibition at 10 µM: read-out: HIV-1 Protease % Inhib, dose 10.000 uM; for inhibition at 30 µM: read-out: HIV-1 Protease % Inhib, dose 30.000 uM; for inhibition at 1 µM: read-out: HIV-1 Protease % Inhib, dose 1.000 uM; for inhibition at 100 µM: read-out: HIV-1 Protease % Inhib, dose 100.000 uM. The method in brief: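 Biotinylated, FITC-labeled peptide substrate (20 μl of 0.2 μM) incubated with HIV-1 protease (10 μl of 0.1 μM) and compound in 0.1 M sodium acetate pH 5.5, 1.0 M NaCl, 0.05% NP-40, 1 h, room temperature, dark. Streptavidin beads then capture uncleaved substrate; filtered labeled product read by fluorescence, giving percent inhibition.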

The target in assay [2] is T1, HIV-1 protease. The assay is described as follows: biochemical. The procedure, abridged:
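Ki from two-fold serial inhibitor dilutions (24–48 concentrations) with 40 nM HIV-1 protease stock and 200 μM substrate stock, 90 min at room temperature; stopped with avidin beads. Reference inhibitor run in parallel; Ki by nonlinear least-squares fit.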

Several values for one entry are separate records, joined by “and”; a condition that tells them apart may be missing. Identical values can stand only once. Like-named read-outs stand apart in the source and are kept apart here.

In general, Ki refers to a dissociation constant, usually derived from enzyme kinetics or from competition with a known ligand. In the case of `O=c1oc2c(c(O)c1C(c1cccc(NS(=O)(=O)c3cc(Cl)c(Cl)s3)c1)C1CC1)CCCCCC2` (stereo not drawn) [Example 302, 4,5-Dichloro-N-[3-[cyclopropyl(5,6,7,8,9,10-hexahydro-4-hydroxy-2-oxo-2H-cycloocta[b]pyran-3-yl)methyl]phenyl]-2-thiophenesulfonamide], in assay [1], the inhibition at 0.123 µM came out at 78.6%, the inhibition at 0.37 µM was found to be 97.8%, the inhibition at 1.1 µM worked out at 105% and the inhibition at 3.3 µM is 113%. Besides, in assay [1], the inhibition at 10 µM was determined as 115% and the inhibition at 30 µM stood at 112%. Besides, the Ki in assay [2] (read-out: HIV-1 FITC KI) came out at 2.7 nM.

Turning to `O=c1oc2c(c(O)c1C(c1ccccc1)C1CC1)CCCCC2Cc1ccccc1` (stereo not drawn) [Example 182, 3-(Cyclopropylphenylmethyl)-6,7,8,9-tetrahydro-4-hydroxy-9-(phenylmethyl)-cyclohepta[b]pyran-2(5H)-one], in assay [1], the inhibition at 0.37 µM came to 22.3%, the inhibition at 1.1 µM stood at 51%, the inhibition at 3.3 µM was 83.7% and the inhibition at 10 µM is 99.2%. In addition, the inhibition at 30 µM in assay [1] came out at 98.7%. For the same molecule, in assay [2] (read-out: HIV-1 FITC KI), the Ki stood at 117 nM.

Consider `CCCC(c1cccc(N)c1)c1c(O)c2c(oc1=O)CCCCCC2` (stereo not drawn) [Example 376, 3-[1-(3-Aminophenyl)butyl]-5,6,7,8,9,10-hexahydro4-hydroxy-2H-cycloocta[b]pyran-2-one], for which, in assay [1], the inhibition at 0.123 µM came out at 10.6%, the inhibition at 0.37 µM is 33.7%, the inhibition at 1.1 µM amounted to 75.3% and the inhibition at 3.3 µM came out at 96.5%. Also, in assay [1], the inhibition at 10 µM stood at 102% and the inhibition at 30 µM was determined as 103%. The Ki in assay [2] (read-out: HIV-1 FITC KI) amounted to 195 nM.

Consider `O=c1oc2c(c(O)c1C(c1cccc(NS(=O)(=O)c3ccc(Cl)s3)c1)C1CC1)CCCCCC2` (stereo not drawn) [Example 301, 5-Chloro-N-[3-[cyclopropyl(5,6,7,8,9,10-hexahydro-4-hydroxy-2-oxo-2H-cycloocta[b]pyran-3-yl)methyl]phenyl]-2-thiophenesulfonamide], for which, in assay [1], the inhibition at 0.123 µM was found to be 74.7%, the inhibition at 0.37 µM was found to be 91.2%, the inhibition at 1.1 µM was determined as 102% and the inhibition at 3.3 µM was 100%. For the same molecule, in assay [1], the inhibition at 10 µM worked out at 104% and the inhibition at 30 µM was 114%. Moreover, the Ki in assay [2] (read-out: HIV-1 FITC KI) was found to be 4.8 nM.

In the case of `O=c1oc2c(c(O)c1C(c1cccc(NS(=O)(=O)c3ccccc3)c1)C1CC1)CCCCCC2` (stereo not drawn) [Example 319, N-[3-[Cyclopropyl(5,6,7,8,9,10-hexahydro-4-hydroxy-2-oxo-2H-cycloocta[b]pyran-3-yl)methyl]phenyl]-benzenesulfonamide], in assay [1], the inhibition at 0.123 µM was determined as 67%, the inhibition at 0.37 µM was 84.2%, the inhibition at 1.1 µM is 93.1% and the inhibition at 3.3 µM is 94.3%. In addition, in assay [1], the inhibition at 10 µM was 102% and the inhibition at 30 µM stood at 101%. For the same molecule, the inhibition constant (Ki) in assay [2] (read-out: HIV-1 FITC KI) was 4.3 nM and 3.3 nM and 2.1 nM.

On to `O=C1c2ccccc2C(=O)N1CCS(=O)(=O)Nc1cccc(C(c2c(O)c3c(oc2=O)CCCCCC3)C2CC2)c1` (stereo not drawn) [Example 327, N-[3-[Cyclopropyl(5,6,7,8,9,10-hexahydro-4-hydroxy-2-oxo-2H-cycloocta[b]pyran-3-yl)methyl]phenyl]-1,3-dihydro-1,3-dioxo-2H-isoindole-2-ethanesulfonamide], for which, in assay [1], the inhibition at 0.123 µM was found to be 34.2%, the inhibition at 0.37 µM is 68.2%, the inhibition at 1.1 µM came to 94.8% and the inhibition at 3.3 µM came out at 105%. Moreover, in assay [1], the inhibition at 10 µM is 106% and the inhibition at 30 µM worked out at 113%. Moreover, in assay [2] (read-out: HIV-1 FITC KI), the Ki was 13.5 nM.

As to `O=c1oc2c(c(O)c1C(c1cccc(NS(=O)(=O)c3cccc(O)c3)c1)C1CC1)CCCCCC2` (stereo not drawn) [Example 405, N-[3-[Cyclopropyl(5,6,7,8,9,10-hexahydro-4-hydroxy-2-oxo-2H-cycloocta[b]pyran-3-yl)methyl]phenyl]-3-hydroxy-benzenesulfonamide], in assay [1], the inhibition at 0.123 µM stood at 46.5%, the inhibition at 0.37 µM is 88.6%, the inhibition at 1.1 µM is 101% and the inhibition at 3.3 µM was 106%. Also, in assay [1], the inhibition at 10 µM amounted to 101% and the inhibition at 30 µM turned out to be 77.2%. For the same molecule, the Ki in assay [2] (read-out: HIV-1 FITC KI) worked out at 3.13 nM.

With `CC1(C)C2CCC1(CS(=O)(=O)Nc1cccc(C(c3c(O)c4c(oc3=O)CCCCCC4)C3CC3)c1)C(=O)C2` (stereo not drawn) [Example 333, N-[3-[Cyclopropyl(5,6,7,8,9,10-hexahydro-4-hydroxy-2-oxo-2H-cycloocta[b]pyran-3-yl)methyl]phenyl]-7,7-dimethyl-2-oxo-bicyclo[2.2.1]heptane-1-methanesulfonamide], in assay [1], the inhibition at 0.37 µM stood at 28.3%, the inhibition at 1.1 µM is 62.2%, the inhibition at 3.3 µM is 82% and the inhibition at 10 µM is 102%. The inhibition at 30 µM in assay [1] is 110%. Further, the Ki in assay [2] (read-out: HIV-1 FITC KI) was 104 nM.

As for `O=c1oc2c(c(O)c1C(c1ccccc1)C1CC1)CCCCCC2CC1CCCOC1` (stereo not drawn) [Example 179, 3-(Cyclopropylphenylmethyl)-5,6,7,8,9,10-hexahydro-4-hydroxy-10-[(tetrahydro-2H-pyran-3-yl)methyl]-2H-cycloocta[b]pyran-2-one], in assay [1], the inhibition at 0.37 µM was 38.6%, the inhibition at 1.1 µM was determined as 71.6%, the inhibition at 3.3 µM was found to be 87.2% and the inhibition at 10 µM worked out at 93.7%. Besides, the inhibition at 30 µM in assay [1] is 91.1%. The Ki in assay [2] (read-out: HIV-1 FITC KI) was determined as 19 nM.

For the molecule `COCCOCCOCCOc1ccc(S(=O)(=O)Nc2cccc(C(c3c(O)c4c(oc3=O)CCCCCC4)C3CC3)c2)cc1` (stereo not drawn) [Example 415, Benzenesulfonamide, N-[3-[cyclopropyl(5,6,7,8,9,10-hexahydro-4-hydroxy-2-oxo-2H-cycloocta[b]pyran-3-yl)methyl]phenyl]-4-[2-[2-(2-methoxyethoxy)ethoxy]ethoxy]-], in assay [1], the inhibition at 0.123 µM was 126%, the inhibition at 0.37 µM came out at 121%, the inhibition at 1.1 µM was determined as 128% and the inhibition at 3.3 µM worked out at 124%. In assay [1], the inhibition at 10 µM was found to be 125% and the inhibition at 30 µM was determined as 120%. In addition, the Ki in assay [2] (read-out: HIV-1 FITC KI) turned out to be 2.3 nM.

Turning to `O=c1oc2c(c(O)c1C(c1ccccc1)C1CC1)CCCCCCCC2` (stereo not drawn) [Example 116, 3-(Cyclopropylphenylmethyl)-5,6,7,8,9,10,11,12-octahydro-4-hydroxy-2H-cyclodeca[b]pyran-2-one], in assay [1], the inhibition at 1 µM turned out to be 23%, the inhibition at 10 µM worked out at 65.7% and the inhibition at 100 µM stood at 102%. In assay [2] (read-out: HIV-1 FITC KI), the Ki came to 558 nM.

Take `CCCC(c1cccc(NS(=O)(=O)c2cn(C)cn2)c1)c1c(O)c2c(oc1=O)CCCCCC2` (stereo not drawn) [Example 431, 1H-imidazole-4-sulfonamide, N-[3-[1-(5,6,7,8,9,10-hexahydro-4-hydroxy-2-oxo-2H-cycloocta[b]pyran-3-yl)butyl]phenyl]-1-methyl-]: in assay [1], the inhibition at 0.123 µM is 109%, the inhibition at 0.37 µM is 109%, the inhibition at 1.1 µM was determined as 109% and the inhibition at 3.3 µM was 112%. Further, in assay [1], the inhibition at 10 µM was found to be 105% and the inhibition at 30 µM came to 106%. For the same molecule, the Ki in assay [2] (read-out: HIV-1 FITC KI) came to 0.89 nM.

On to `O=c1oc2c(c(O)c1[C@@H](c1cccc(NS(=O)(=O)c3cccc4cccnc34)c1)C1CC1)CCCCCC2` [Example 260, (+)-N-[3-[Cyclopropyl(5,6,7,8,9, 10-hexahydro-4-hydroxy-2-oxo-2H-cycloocta[b]pyran-3-yl)methyl]phenyl]-8-quinolinesulfonamide], for which, in assay [1], the inhibition at 0.123 µM stood at 73.8%, the inhibition at 0.37 µM worked out at 91.7%, the inhibition at 1.1 µM stood at 99% and the inhibition at 3.3 µM was found to be 106%. For the same molecule, in assay [1], the inhibition at 10 µM was found to be 102% and the inhibition at 30 µM was determined as 96.9%. In addition, the Ki in assay [2] (read-out: HIV-1 FITC KI) came out at 0.93 nM.

On to `O=c1oc2c(c(O)c1C(c1cccc(NS(=O)(=O)c3cccc(NS(=O)(=O)CCCCl)c3)c1)C1CC1)CCCCCC2` (stereo not drawn) [Example 313], for which, in assay [1], the inhibition at 0.123 µM turned out to be 104%, the inhibition at 0.37 µM is 96.5%, the inhibition at 1.1 µM was 101% and the inhibition at 3.3 µM came out at 100%. Moreover, in assay [1], the inhibition at 10 µM came to 106% and the inhibition at 30 µM amounted to 102%. For the same molecule, the Ki in assay [2] (read-out: HIV-1 FITC KI) is 1.17 nM.

As to `CS(=O)(=O)Nc1cccc(C(c2c(O)c3c(oc2=O)CCCCC3)C2CC2)c1` (stereo not drawn) [Example 364, N-[3-[Cyclopropyl(2,5,6,7,8,9-hexahydro-4-hydroxy-2-oxocyclohepta[b]pyran-3-yl)methyl]phenyl]-methanesulfonamide], in assay [1], the inhibition at 0.37 µM was found to be 17.2%, the inhibition at 1.1 µM turned out to be 53.5%, the inhibition at 3.3 µM turned out to be 78.7% and the inhibition at 10 µM amounted to 100%. Also, the inhibition at 30 µM in assay [1] was found to be 90.2%. The Ki in assay [2] (read-out: HIV-1 FITC KI) is 118 nM.

Consider `CCC(c1ccccc1)c1c(O)c2ccc(OCCOCCOCCOC)cc2oc1=O` (stereo not drawn) [Example 154], for which, in assay [1], the inhibition at 1 µM came out at 13.6%, the inhibition at 10 µM was determined as 77.1% and the inhibition at 100 µM was found to be 96%. In assay [2] (HIV-1 FITC KI), the Ki is 520 nM.
